Source: a melting point compilation (Tetko et al.; mined from patent text by program, amines drawn as free bases though some values may be those of a salt)

Structure (SMILES)	melting point
COC(=O)c1cccc(-c2cccc(Oc3ccc(Cl)cc3Cl)n2)c1	112 to 113 °C
O=C(c1nn(-c2ccc(F)cc2F)c2c1C1CCC2C1)N1CCc2ccccc2C1 (stereo not given)	134 to 138 °C
O=S(=O)(Nc1ccc(Cl)cc1)C(Cl)=C(Cl)Cl	73 to 76 °C
CCOc1cc(C(=O)N2CCN(C(=O)C3=Cc4cc(OC)c(OC)cc4CCC3)CC2)cc(OCC)c1OCC	125 to 126 °C
O=C1NC(=O)C(Cc2ccc(OC[C@@H]3CCCN3c3ccccn3)cc2)S1 (stereo not given in full)	78 to 80 °C
CCCN1CCN(c2cccc3c2C[C@H](NC(C)=O)CC3)CC1	139 to 140 °C
COc1ccc(Nc2nccc(-c3ccc(N4CCNCC4)nc3)n2)cn1	160 to 165 °C
CC(=O)c1cnc2c(n1)C(C)(C)CCC2(C)C	68 to 69 °C
CCOC(=O)c1cnc2nc(C)c(OCC)cc2c1Cl	> 250 °C
CC(C)(COc1ccc(-n2cc(C(=O)O)cn2)cc1C#N)C(=O)O	230 to 233 °C
Cc1cc(C(C)(C)C)c(O)c2c1C1CCCCC1C2=O (stereo not given)	77 to 78 °C
O=C(CN1CCN(C(c2ccccc2)c2ccccc2)CC1)Nc1ccc2ncnn2n1	203 to 204 °C
COc1cc2c(cc1OC)CC(=O)N(CCC=O)C=C2	95 to 96 °C
CN(C)c1cc(-c2ccnc(Nc3cccc(Cl)c3)n2)ccn1	176 to 178 °C
Nc1nc(NC2CCCCC2)nc2c1ncn2C1CCCCC1	109 to 117 °C
CCCCc1cccc(-c2nc(C(C)C)n(C)n2)n1	58.1 °C
COc1ccc(Cn2c(N)c(NC(=O)C(C)C)c(=O)[nH]c2=S)cc1OCc1ccccc1	240 to 244 °C
CO[C@@H](Cc1ccc(OCCc2nc(-c3ccc(C(F)(F)F)cc3)oc2C)c2ccsc12)C(=O)O	173 to 175 °C
Cc1oc(-c2ccccc2)nc1COc1ccc(OCc2ncccc2CC#N)cc1	134 to 135 °C
COc1ccc(S(=O)(=O)N(C)C)c([N+](=O)[O-])c1	90 to 92 °C
O=C(Nc1ccncc1)C1=C(O)CCn2c1nc1ccccc12	274 to 276 °C

Structure (SMILES)	melting point
CC(=O)/C(=C/I)c1ccccc1	97 °C
CCN(c1nc(F)ccc1[N+](=O)[O-])C1CCN(Cc2ccccc2)CC1	99 to 100 °C
Cc1c[nH]c2c([N+](=O)[O-])ccc(C)c2c1=O	250 to 262 °C
ClCc1coc(Cc2ccccc2)n1	31 to 32 °C
Fc1ccc(COc2ncc(F)c(NCc3ccccc3F)n2)cc1	83 to 84 °C
COc1cn(-c2cc(-n3cccn3)ccc2F)nc(-c2ccnn2-c2ccccc2)c1=O	186 to 187 °C
CO[C@@H]1C(S(=O)(=O)c2ccccc2)=C[C@H](C)[C@@H](O[Si](C)(C)C(C)(C)C)[C@@H](C)[C@@H]1O[Si](C)(C)C(C)(C)C	94 to 96 °C
CC(C)(C)c1cc(C#N)c(O)cn1	185 to 195 °C
CCCO[C@@H](C)C(=O)Oc1ccc(C(=O)O)cc1	84 °C
CCN(C1CCN(C)CC1)S(=O)(=O)c1ccc(Nc2nccc(Nc3ccc(F)cc3)n2)cc1	154 °C
COc1nc(C)nc(NC(=NS(=O)(=O)c2cccnc2)SC)n1	146 to 149 °C
COc1ccc([C@H]2SC=C(c3ccccc3)N(CCN(C)C)C(=O)[C@H]2O)cc1	110 to 112 °C
COC(=O)c1cc2cc(C(=O)c3cccc(CC#N)c3)sc2s1	184 °C
CSc1nc(-c2cccnc2)n(-c2ccc(F)cc2)c(=O)c1C#N	190 to 193 °C
COc1ccc(-c2csc3nc(C)c(CCN4CCC(c5noc6cc(F)ccc56)CC4)c(=O)n23)cc1	114 to 119 °C
CCCCCCS(=O)(=O)c1nn2c(=O)cc(C#N)nc2s1	144 to 146 °C
CNc1ccc(C2=NCCO2)cc1	102 to 105 °C
CC(=O)N1CCc2ccc(Cl)c(S(=O)(=O)Cl)c2C1	121 to 125 °C
CCN1CC(OCC=C(C)C)(C(F)(F)F)c2cc(Cl)ccc2NC1=O (stereo not given)	158 to 160 °C
CCc1ccc2c(c1)C=Cc1cc(C)ccc1C2c1cn(Cc2ccc(C(=O)O)o2)c(=O)[nH]c1=S (stereo not given)	165 °C
CCC(=O)NC(=O)Nc1ccc(OC)c(OC)c1	193 to 197 °C

Structure (SMILES)	melting point
CC(=O)NNc1c(C)cnc2c(NC(=O)c3c(Cl)cccc3Cl)ccc(C)c12	234 to 238 °C
CCC(COc1ccccc1COc1cccc2ccc(=O)[nH]c12)OC(C)=O (stereo not given)	112 to 114 °C
Cc1ccc(OC2CCC3C4CC=C5CC(O[Si](C)(C)C(C)(C)C)CCC5(C)C4CCC23C)cc1 (stereo not given)	137 to 138 °C
O=C(O)CCCn1sc2ccc([N+](=O)[O-])cc2c1=O	183 to 186 °C
O=C1N(CC2COCCO2)c2ccccc2C12COc1cc3c(cc12)OCCO3 (stereo not given)	198 to 199 °C
Cc1ccccc1-c1nc(N)ncc1-c1ccc(=O)n(C(C)C)n1	203 °C
COc1cc(Cn2c(=O)n(C3CCCCC3)c3cc(Cl)ccc32)ccc1[N+](=O)[O-]	176 °C
CCCCCCCCCCCCS(=O)(=O)Nc1ccccc1C(=O)Nc1cc(Cl)c2c(c1O)CN(C)C(=O)N2	183 to 187 °C
CC(=O)Nc1nc(O)c2cc(C=C(C)c3ccc(C(=O)O)cc3)cnc2n1	> 250 °C
CC(=O)c1ccc(CCCOc2c(C)cc(N3CN=C(C(F)F)O3)cc2C)nn1	95 to 96 °C
COCCCCC1(O)C2=NCCCN2c2ccccc21 (stereo not given)	128 to 139 °C
O=C1C(=O)c2ccccc2C2=C1SCC1(CCN(CC(O)COc3ccc4ccccc4c3)CC1)O2 (stereo not given)	164 to 167 °C
Cc1cccc(-c2cncc(OC3SCC(O)C(O)C3O)c2)n1 (stereo not given)	188 °C
COC(=O)C(Cc1ccc(Cl)cc1Cl)c1c(Cl)cccc1Cl (stereo not given)	115 °C
O=C(O)c1ccc2c(c1)CCN2Cc1cccc([N+](=O)[O-])c1	259 to 262 °C
C=CCOC(=O)Nc1cc(-c2cccc(Cl)c2)sc1C(C)(C)O	60 to 61 °C
N#CN=C(NCCSCc1ccccn1)NCCSCc1ccccn1	78 to 80 °C
CCCN(CCC)S(=O)(=O)c1cc(C(=O)CCl)ccc1Cl	76 °C
CCN1C(=O)C(C)N(c2ccc(Oc3ccccc3)cc2)C1=S (stereo not given)	102 °C
COc1ccc([N+](=O)[O-])c(C#N)c1CBr	137 to 138 °C

Results, then the compound that gave them:

melting point	Structure (SMILES)
124 to 126 °C	N#CC1=Cc2cc(Cl)ccc2OC1
278 to 280 °C	O=C(NC(Cc1ccc(OCc2ccccc2)cc1)C(=O)O)c1ccc2nc(-c3ccc(Cl)cc3)cn2c1 (stereo not given)
201 to 202 °C	CCc1c(C(=O)c2cc(C)cc(C)c2)n(CC=CC(=O)OC)c(=O)[nH]c1=O
46 to 47 °C	CCC(I)CCCC(F)(F)C(F)(F)C(F)(F)C(F)(F)C(F)(F)C(F)(F)C(F)(F)C(F)(F)F (stereo not given)
207 to 210 °C	COc1cc2c3ccc(OC)c(OC)c3n(Cc3c(Cl)cccc3Cl)c2cc1OC
194 to 196 °C	COc1ccc(N2CCOCC2)c2sc(-c3nc4c([nH]3)CCN(C(=O)c3ccccc3C)CC4)nc12
62 to 64 °C	CCCCCCCCCCCCc1nnn(C(C(N)=O)(c2ccccc2)c2ccc(F)cc2F)n1 (stereo not given)
198 to 206 °C	COC(=O)Nc1nc2cc(S(=O)CC3CCC3)ccc2[nH]1 (stereo not given)
97 to 100 °C	CC(Sc1nc2ccc(N)cc2s1)C(=O)NCCN(C)Cc1ccc(Cl)c(Cl)c1 (stereo not given)
46 to 47 °C	CC#CCOc1cc(C=O)ccc1OC(F)F
137 to 138 °C	ClCc1ccc(-c2ccc(CCl)cc2)cc1
140 °C	CNC(=O)C(C)c1ccc2c(c1)CCc1ccccc1C2=O (stereo not given)
58 to 59 °C	CCOc1nn(Cc2ccc(Cl)cc2Cl)cc1CCCO
69 to 70 °C	CCCCOc1c(C#N)c(C#N)c(OCCCC)c2ccccc12
219 to 221 °C	CCC(=O)NCc1cccc2c1C(=O)N(C1CCC(=O)NC1=O)C2=O (stereo not given)
116 to 117 °C	O=S(=O)(NCc1ccccc1)c1ccc(Br)cc1
163 to 165 °C	CSC(=O)C(=O)c1cccc(NC=O)n1
98 °C	Cc1cc(=O)c(C(=O)O)c(C)o1
215 to 218 °C	O=C(Nc1cccc2c(=O)cc(C(=O)O)oc12)c1ccc2oc(COCc3ccccc3)cc2c1

melting point	Structure (SMILES)
208 to 225 °C	CCNC(=O)c1ccc(N2CCN(Cc3cc4c(c(OC)c3)OCC(=O)N4)CC2)c(C)c1
158 °C	CCCCc1nc(SC)c(Br)n1Cc1ccc(-c2ccccc2S(=O)(=O)N=CN(C)C)cc1
232 to 234 °C	CC(C)n1nc(-c2sc(C(N)=O)nc2-c2cccc(Cl)c2)ccc1=O
216 to 217 °C	O=C1Nc2ccc(Cl)cc2C2(c3ccccc3)OCCN12 (stereo not given)
155 to 157 °C	N#Cc1ccc(Cc2cccnc2)cc1
240 to 241 °C	Cc1ccc(NC(=O)c2ccc(CN(C)C)c(C(F)(F)F)c2)cc1-c1ccc2cnncc2c1
124 to 126 °C	COc1cc(C(=O)CBr)cc(OC)c1OC(C)=O
91 to 93 °C	O=C(NCCCCC1CCSS1)N1CCCC1 (stereo not given)
191 °C	COC(=O)c1cc(N2CCCC2)c(Oc2ccccc2)c(S(N)(=O)=O)c1
53 to 55 °C	COc1ccc(C)c([N+](=O)[O-])c1C
121 °C	CS(=O)(=O)Oc1ccc(Oc2ccccc2)cc1CC(=O)O
184 to 185 °C	CC(C)Cn1nc(-c2ccc(C(F)(F)F)cc2)cc(C(=O)O)c1=O
183 to 185 °C	COc1ccc(OS(=O)(=O)c2ccc(N3CCN(C)C3=O)cc2)cc1
189 to 191 °C	O=C(NCCCN1CCN(c2ccc(F)cc2OCC(F)(F)F)CC1)c1csc2c(=O)cc(-c3ccccc3)oc12
154 to 155 °C	N#Cc1ccc(N2C(=O)N(CCCCCN3C(=O)N(c4ccc(C#N)c(C(F)(F)F)c4)C(=O)C34CC4)C3(CC3)C2=O)cc1C(F)(F)F
164 to 165 °C	Brc1cc(Br)c2c(c1)CCN2
277 to 279 °C	O=c1c2c(c3cccnc3n1-c1ccccc1)SCC2
133 to 134 °C	O=S(=O)(c1ccc(Cl)cc1)C1(c2nnn(Cc3ccccc3)n2)CCCCC1
41 to 44 °C	CS(=O)(=O)SCCOC(=O)Cc1cccc(Nc2c(Cl)cccc2Cl)c1
